Laboratory results taken from ChEMBL document CHEMBL2029333, “Synthesis of norlignans and in vitro inhibitory activity of antigen-induced degranulation” (Bioorg Med Chem Lett, 2012).
pIC50: −log10 of the molar value.

Test system: RBL-2H3
Experiment: Inhibition of DNP-BSA-induced degranulation in rat RBL2H3 cells assessed as reduction in beta-hexosaminidase release after 20 mins by spectrophotometry
Format: functional, cell-based
Settings: RBL-2H3, 20 min

`C=CC(/C=C/c1ccc(O)cc1)c1ccc(O)cc1` (stereo not given) and `C=CC(/C=C/c1ccc(O)cc1)c1cccc(O)c1` (stereo not given) are within 0.2 log units of each other in pIC50: 4.26 for the first, 4.25 for the second.

`C=CC(CC(=O)c1ccc(OC)cc1)c1ccc(OC)cc1` (stereo not given) and `C=CC(CC(=O)c1ccc(OC)cc1)c1cccc(OC)c1` (stereo not given) are within 0.2 log units of each other in pIC50: 4.05 for the first, 4.07 for the second.

`C=CC(CC(=O)c1ccc(O)cc1)c1cccc(O)c1` (stereo not given) and `C=CC(CC(=O)c1ccc(O)cc1)c1cccc(OC)c1` (stereo not given) are within 0.2 log units of each other in pIC50: 4.74 for the first, 4.75 for the second.

Going from `C=CC(CC(=O)c1ccc(OC)cc1)c1cccc(O)c1` (stereo not given) to `C=CC(CC(=O)c1ccc(O)cc1)c1ccc(O)cc1` (stereo not given), the pIC50 rises from 4.04 to 4.46 (0.42 log units). The second is the more potent here.

Going from `C=CC(CC(O)c1ccc(O)cc1)c1ccc(O)cc1` (stereo not given) to `C=CC(CC(O)c1ccc(O)cc1)c1cccc(O)c1` (stereo not given), the pIC50 rises from less than 3.70 to 4.47.

`C=CC(CC(O)c1ccc(OC)cc1)c1ccc(OC)cc1` (stereo not given) and `C=CC(CC(O)c1ccc(OC)cc1)c1cccc(OC)c1` (stereo not given) cannot be ordered by pIC50: less than 3.70 for the first, less than 3.70 for the second.

`C=CC(/C=C/c1ccc(OC)cc1)c1ccc(OC)cc1` (stereo not given) and `C=CC(/C=C/c1ccc(OC)cc1)c1cccc(OC)c1` (stereo not given) cannot be ordered by pIC50: less than 3.70 for the first, less than 3.70 for the second.

Compound `CN1CCC(=C2c3ccccc3CC(=O)c3sccc32)CC1` [KETOTIFEN] has a pIC50 of 4.45.
